These results are taken from US20180200233A1, “COMPOSITIONS FOR PREVENTING CANCERS ASSOCIATED WITH HUMAN PAPILLOMA VIRUSES” (Loma Linda University, priority 2015, published 2018).

The target of experiment [1] is T1, GST-E6/His-E6AP (Human papillomavirus type 16, UniProt P03126).
T1 construct: made in house
The experiment in a line: AlphaScreen bead-based assay, GST-E6/His-E6AP binding. More on the design: species or system HPV 16. To be noted: for inhibition of E6/E6AP interaction (in words): FIG. 2B. The procedure: (§1) FIGS. 2A-C are graphs providing data regarding inhibition of protein-protein interactions by 3-(1H-indol-1yl)propan-1-amine (1), three benzimidazole derivatives (2-4), and spinacine (5). Compounds, at the indicated concentrations (1.4 μM to 3.2 mM) were tested using a bead-based screening assay for their ability to inhibit three different protein/protein interactions: (FIG. 2A) GST-E6/His-caspase 8; (FIG. 2B) GST-E6/HisE6AP; and (FIG. 2C) GST-caspase 8/His-caspase 8. Binding in the presence of 1.4 μM of the test compound was set at 100%. Experiments were performed in triplicate, and error bars indicate the standard deviation.
(§2) To determine the dose-responsiveness of these five compounds, variable concentrations of those small molecules were first tested for their ability to inhibit E6/caspase binding. […] These molecules, which had been selected for their ability to interfere with E6/caspase 8 binding, were then tested to determine if they could also affect other interactions of E6, such as its binding to E6-associated protein (E6AP). The E6/E6AP interaction is required for the E6-mediated acceleration of p53 degradation (Huibregtse, J. M., M. Scheffner, and P. M. Howley, A cellular protein mediates association of p53 with the E6 oncoprotein of human papillomavirus types 16 or 18. The EMBO journal, 1991. 10(13): p. 4129-35).
(§3) Alpha-Screen™ technology was used to assess the interactions between GST-E6, GST-caspase 8, His-E6AP, and His-caspase 8. Binding assays were performed in white 384-well plates (Perkin-Elmer) in a total volume of 25 μl as previously described (Tungteakkhun, S. S., et al., The interaction between human papillomavirus type 16 and FADD is mediated by a novel E6 binding domain. Journal of virology, 2008. 82(19): p. 9600-14). Briefly, 5 μl (50 ng) of GST-E6 and 5 μl (87.5 ng) of His-caspase 8 were included in each reaction mixture with 5 μl blocking buffer (0.5 mg BSA, 0.5% Tween 20 in PBS) in the absence or presence of 10 μM of each test chemical. Members of the library were present at M in DMSO. After a one-hour incubation of the mixture at room temperature, 5 μl donor beads and 5 μl acceptor beads (Perkin-Elmer) were added to each well according to the manufacturer's protocol. The mixture was incubated in the dark at room temperature overnight, and the emitted signal was detected using the Envision Multilabel plate reader (Perkin-Elmer). In the presence of test chemicals, the binding affinity was calculated as a percentage of the binding in the presence of carrier only (DMSO).
A general note: Bead proximity is the source of the signal in Alpha formats.

Experiment [2] has as its target T2, GST-caspase 8/His-caspase 8 (Homo sapiens, UniProt Q14790).
T2 construct: pTriEx-Caspase-8 DED plasmids; fused on or other part: GST tag on one copy, His tag on the other (AlphaScreen bead handles)
The experiment in a line: AlphaScreen counter-screen, GST-caspase 8/His-caspase 8 binding. To be noted: for inhibition of caspase 8/caspase 8 interaction (in words): FIG. 2C. The procedure:
as §1
To ask whether this inhibition was specific, a counter-screening assay was employed the ability of candidates to inhibit the binding of GST-caspase 8 to His-caspase 8 was assessed; those that did were to be eliminated. In this counter-screening assay, the materials in each well were the same as in the primary screen, with the exception that GST-caspase 8 replaced GST-E6.
as §3

For experiment [3], the target named is T3, GST-E6/His-caspase 8 (Human papillomavirus type 16, UniProt P03126).
T3 construct: made in house
T3 sequence (P03126 whole entry): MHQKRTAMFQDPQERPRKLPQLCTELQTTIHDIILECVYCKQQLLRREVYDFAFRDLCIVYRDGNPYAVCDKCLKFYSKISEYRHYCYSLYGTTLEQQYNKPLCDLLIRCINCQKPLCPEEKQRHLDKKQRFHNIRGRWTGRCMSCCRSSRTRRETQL
The experiment in a line: AlphaScreen bead-based assay, GST-E6/His-caspase 8 binding. More on the design: species or system HPV 16. To be noted: for inhibition of E6/caspase 8 binding (in words): FIG. 2A, primary screen at 10 μM. The procedure: as §1
HPV E6 binds to caspase 8 (Garnett, T. O., M. Filippova, and P. J. Duerksen-Hughes, Accelerated degradation of FADD and procaspase 8 in cells expressing human papilloma virus 16 E6 impairs TRAIL-mediated apoptosis. Cell death and differentiation, 2006. 13(11): p. 1915-26), and myricetin can block the E6/caspase 8 interaction in vitro (Yuan, C. H., et al., Small molecule inhibitors of the HPV16-E6 interaction with caspase 8. Bioorganic & medicinal chemistry letters, 2012. 22(5): p. 2125-9). A bead-based assay based on AlphaScreen™ technology (Perkin-Elmer) is used to identify inhibitors of the E6/caspase 8 interaction (Yuan, C. H., et al., Small molecule inhibitors of the HPV16-E6 interaction with caspase 8. Bioorganic & medicinal chemistry letters, 2012. 22(5): p. 2125-9). The ActiProbe 2K (2,000 compounds) library was screened using the same approach. […] Analysis of the structures and physical/chemical characteristics of those molecules led to the selection of five additional compounds: 3-(1H-indol-1-yl)propan-1-amine methanesulfonate (1), benzimidazole (2), 1H-benzimidazole-1-methanol (3), 2-(methoxymethyl)-1H-benzimidazole (4), and spinacine (5) for further study (FIG. 1).
as §2
as §3, with “Members of the library were present at M in DMSO. After a one-hour incubation of the mixture at room temperature, 5 μl donor beads and 5 μl acceptor beads (Perkin-Elmer) were added to each well according to the manufacturer's protocol.” left out

Experiment [4] deals with UPCI-SCC90-UP-Clone 35 (#90) cells. The experiment in a line: MTT cell viability, HPV+ HNSCC cell line #90 with TRAIL. To be noted: all selected cell lines; TRAIL as high as 100 ng/ml, FIG. 7A. The class given is cell-based. The procedure: FIGS. 7A-E are graphs showing myricetin and spinacine (5) re-sensitized HPV^+, but not HPV^−, head and neck cancer cell lines to treatment with TRAIL. (FIG. 7A) Both HPV^− and HPV^+ HN cancer cell lines display resistance to TRAIL treatment. HPV^− (#84) (Myricetin—FIG. 7B; Spinacine—FIG. 7C) and HPV^+ (#90) (FIG. 7D; Spinacine—FIG. 7E) head and neck cancer cell lines (2×10^4 cells per well) were seeded into 96-well plates and allowed to incubate overnight, then cells were pre-treated with myricetin (0-200 μM) or spinacine (0-100 μM) for 4 h. […] of TRAIL, along with cycloheximide (5 μg/ml) was added and cells were allowed to incubate overnight. Cell viability was measured by the MTT assay, and the viability of cells untreated with small molecules was set at 100%. Experiments were performed in triplicate, and error bars indicate the standard deviation.
As shown above, myricetin and spinacine sensitize SiHa cells to TRAIL and chemotherapy drugs. […] Other types of HPV^+ cancer cells were examined, and in particular, head and neck squamous cell carcinoma (HNSCC) cells can also be sensitized in this manner. […] For the combination experiments, 50 ng/ml TRAIL was applied in combination with either myricetin (0-200 μM) or spinacine (0-100 μM). […] In contrast […], TRAIL-induced cell death was enhanced 30% in UPCI-SCC90-UP-Clone 35, #90. Furthermore, 40 μM spinacine was able to enhance TRAIL-induced cell death in the HPV^+ #90 cell lines up to 50%.
The extracellular domain of human TRAIL was cloned into a pTriEx expression plasmid containing N-terminal Hisx6 tag. His-TRAIL was expressed in the E. coli BL-21 pLys strain and purified as previously described. Doxorubicin and cisplatin were purchased from Sigma. His-TRAIL, doxorubicin, and cisplatin were diluted in PBS to the desired concentration before using. […] All experiments were repeated at least three times (three biological replicates, carried out on different days), with each experimental group measured in triplicate within each of these individual experiments. […]

The test system of experiment [5] is SiHa cells. The experiment in a line: MTT cell viability, SiHa cells, TRAIL-induced apoptosis. It is filed as cell-based, human. To be noted: SiHa cells in comparison to U2OS cells; with cycloheximide 5 μg/ml, FIG. 3A. The procedure: FIGS. 3A-E are graphs providing data regarding resistance of HPV^+ SiHa cells to TRAIL-, cisplatin- and […] apoptosis, in the presence and absence of small molecules as disclosed herein. (FIG. 3A) HPV^+ SiHa cells are resistant to TRAIL-induced apoptosis as compared to the human osteosarcoma cell line U2OS. Cells (2×10^4 cells per well) were seeded into a 96-well plate, allowed to incubate overnight, and then treated with indicated concentration of TRAIL in the presence of cycloheximide (5 μg/ml). The viability of cells was measured after overnight incubation using the MTT assay; the viability of cells untreated with TRAIL was set at 100% for each group. (FIG. 3B) The indicated concentrations of three small molecules were added to SiHa cells, and an MTT assay was preformed after overnight incubation. The viability of cells untreated with small molecules was set as 100%. (FIG. 3C) The indicated concentrations of myricetin or spinacine were added 4 h prior to TRAIL (100 ng/ml) in the presence of cycloheximide (5 μg/ml) and incubated at 37° C. overnight. The viability of cells untreated with small molecules was set at 100%. (FIG. 3D and FIG. 3E) SiHa cells (2×10^4 cells per well) were seeded into a 96-well plate and allowed to incubate overnight. 100 μM of myricetin and 50 μM of spinacine were added 4 h prior to either (FIG. 3D) doxorubicin or (FIG. 3E) cisplatin. Cell viability was measured after overnight incubation using the MTT assay, and the viability of cells untreated with either myricetin or spinacine was set at 100%. Experiments were performed in triplicate, and error bars indicate the standard deviation.
FIGS. 5A-B are graphs showing myricetin and spinacine (5) re-sensitized HPV^+, but not HPV^−, cells to treatment with TRAIL. SiHa (2×10^4 cells per well) and C33A cells (1×10^4 cells per well) were seeded into a 96-well plate and allowed to incubate overnight, then cells were pre-treated in the presence or absence of myricetin (100 μM) (FIG. 5A) or spinacine (50 μM) (FIG. 5B) for 4 h. The indicated concentration of TRAIL, along with cycloheximide (5 μg/ml) was added and cells were allowed to incubate overnight. Cell viability was measured by MTT assay, and the viability of cells untreated with TRAIL was set at 100%. Experiments were performed in triplicate, and error bars indicate the standard deviation.
The molecules were then tested to determine whether those that block E6/caspase 8 binding in vitro could also act in the context of a cell. SiHa cells are an HPV^+ cell line, derived from a cervical carcinoma, which serves as a commonly used model for HPV-associated malignancies. To determine whether HPV^+ SiHa cells are resistant to TRAIL-induced apoptosis, SiHa cells were treated with TRAIL and cell viability was assessed. TRAIL-sensitive, HPV^− U2OS cells served as a positive control. […] Myricetin and/or spinacine were tested to determine if they could sensitize these HPV^+ cells to TRAIL-induced apoptosis. […] Table 2 lists and compares the concentrations of the three tested compounds required to induce death in 50% of SiHa cells in the presence or absence of TRAIL.
The extracellular domain of human TRAIL was cloned into a pTriEx expression plasmid containing N-terminal Hisx6 tag. His-TRAIL was expressed in the E. coli BL-21 pLys strain and purified as previously described. Doxorubicin and cisplatin were purchased from Sigma. His-TRAIL, doxorubicin, and cisplatin were diluted in PBS to the desired concentration before using. To measure cell survival following treatment with TRAIL, cisplatin and doxorubicin, SiHa (2×10^4/well), C33A (1×10^4/well), and HNSCC cells (2×10^4/well) were seeded into 96-well plates and allowed to adhere overnight. Small molecules at the desired concentration were added and incubated at 37° C. for 4 h. As indicated, TRAIL, cisplatin or doxorubicin was then added. […]

The mark [6] stands for this setting: bead-based assay, compounds tested 1.4 μM to 3.2 mM.

T1 sequence (P03126 whole entry): as above
T2 sequence (Q14790 whole entry, the tested form may be a part): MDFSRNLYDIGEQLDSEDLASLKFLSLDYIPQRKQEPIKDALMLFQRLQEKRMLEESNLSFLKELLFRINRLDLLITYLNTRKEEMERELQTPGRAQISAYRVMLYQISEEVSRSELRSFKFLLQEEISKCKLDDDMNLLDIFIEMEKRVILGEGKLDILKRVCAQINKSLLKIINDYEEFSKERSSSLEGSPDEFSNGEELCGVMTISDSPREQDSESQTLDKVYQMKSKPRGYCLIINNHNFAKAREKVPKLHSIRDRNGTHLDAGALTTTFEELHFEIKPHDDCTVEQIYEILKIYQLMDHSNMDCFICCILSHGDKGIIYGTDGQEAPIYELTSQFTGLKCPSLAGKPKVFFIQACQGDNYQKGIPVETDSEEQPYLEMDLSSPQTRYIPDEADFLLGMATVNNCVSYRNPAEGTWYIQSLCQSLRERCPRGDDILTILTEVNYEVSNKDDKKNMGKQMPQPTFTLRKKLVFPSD

For `CS(=O)(=O)O.NCCCn1ccc2ccccc21` [Compound 1, 3-(1H-indol-1-yl)propan-1-amine methanesulfonate], the “inhibition of E6/E6AP interaction (in words)” value in experiment [1] was “could also inhibit the E6/E6AP interaction”. In addition, in experiment [2], the “inhibition of caspase 8/caspase 8 interaction (in words)” value is on record as “able to inhibit the caspase 8/caspase 8 interaction”. Also, the “inhibition of E6/caspase 8 binding (in words)” value in experiment [3] was “dose-dependent inhibition”.
The matching figures for `c1ccc2[nH]cnc2c1` [Compound 2, benzimidazole]: “could also inhibit the E6/E6AP interaction”, “able to inhibit the caspase 8/caspase 8 interaction” and “dose-dependent inhibition”.
Consider `COCc1nc2ccccc2[nH]1` [Compound 4, 2-(methoxymethyl)-1H-benzimidazole], for which, in experiment [1] (setting [6]), the “EC50 for GST-E6/His-E6AP interaction” value is given as “No inhibition”. In addition, in experiment [2] (compounds tested 1.4 μM to 3.2 mM), the “EC50 for GST-caspase 8/His-caspase 8 interaction” value was “No inhibition”. Also, the “EC50 for GST-E6/His-caspase 8 interaction” value in experiment [3] (setting [6]) was “No inhibition”.

B1: TRAIL: tumor necrosis factor-related apoptosis-inducing ligand; extracellular domain of human TRAIL, His-tagged, expressed in E. coli (protein, UniProt P50591 39-281, looked up)
extracellular domain: TNELKQMQDKYSKSGIACFLKEDDSYWDPNDEESMNSPCWQVKWQLRQLVRKMILRTSEETISTVQEKQQNISPLVRERGPQRVAAHITGTRGRSNTLSSPNSKNEKALGRKINSWESSRSGHSFLSNLHLRNGELVIHEKGFYYIYSQTYFRFQEEIKENTKNDKQMVQYIYKYTSYPDPILLMKSARNSCWSKDAEYGLYSIYQGGIFELKENDRIFVSVTNEHLIDMDHEASFFGAFLVG
modifications: extracellular domain His tag
notes: tumor necrosis factor-related apoptosis-inducing ligand; extracellular domain of human TRAIL, His-tagged, expressed in E. coli
As to B1, the “response of HNSCC cell lines to TRAIL alone (in words)” value in experiment [4] was “resistance”. Further, the “response of cells to TRAIL alone (in words)” value in experiment [5] is given as “relatively resistant”.
